ChEMBL document CHEMBL1142376, “Novel CADD-based peptidyl vinyl ester derivatives as potential proteasome inhibitors” (Bioorg Med Chem Lett, 2008)

Experiments:
BGC-823 = assay: Antiproliferative activity against human BGC823 cells at 10 umole; assay type: functional
KB = assay: Antiproliferative activity against human KB cells at 10 umole; assay type: functional
[1] = Inhibition of chymotrypsin-like activity of 20S proteasome
[2] = Inhibition of post acidic-like activity of 20S proteasome
[3] = Inhibition of trypsin-like activity of 20S proteasome
Bel-7402 = assay: Antiproliferative activity against human Bel7402 cells at 10 umole; assay type: functional
HL-60 = assay: Antiproliferative activity against human HL60 cells at 10 umole; assay type: functional

SMILES	Activity (BGC-823)	Activity (KB)	IC50 [1]	IC50 [2]	IC50 [3]	Activity (Bel-7402)	Activity (HL-60)
CCOC(=O)/C=C/[C@H](Cc1ccc(O)cc1)NC(=O)[C@H](CO)NC(=O)[C@@H](NC(=O)OC(C)(C)C)C(C)C	22.59%	7.44%	> 100 µmol	> 100 µmol	> 100 µmol	3.39%	26.73%
CCOC(=O)/C=C/[C@H](C[C@@H]1CCNC1=O)NC(=O)[C@H](CC(C)C)NC(=O)[C@H](CC(C)C)NC(=O)OC(C)(C)C	21.44%	-14.03%	> 100 µmol	> 100 µmol	> 100 µmol	-2.4%	36.97%
